# Source: US10286084B2, “Compositions for the inactivation of virus replication and methods of making and using the same” (priority 2014, dated 2019)
# Where a name gives a salt, the structure may show the parent alone. Read-outs that look alike come from different tables or passages of the source.
# Tests used:
# Assay type in all cases: cell-based
# HBV = HBV DNA release into supernatant of transduced HBV2.2.15 cells, with or without antivirals; conditions: compound 1 μM, relative to untreated N.S. sgRNA cells, average ± SD; for inhibition at 1 µM: Hepatitis B virus
# Method: HepAD38 or HBV2.2.15 cells were transduced with lentiviral vectors expressing a puromycin resistance gene as well as Spy Cas9 and an sgRNA, as described above, at 85-90% confluency after growth in medium lacking Tet for 48 h, to ensure expression of HBV mRNAs and DNA. Beginning at 48 h post-transduction, cells were selected in 4 μg/ml puromycin (Life Technologies) for 10 days to eliminate any non-transduced cells. Supernatant media and cells were then harvested for ELISA and real-time PCR assays. Control cells including non-transduced HepAD38 cells were included as positive controls for HBV replication (in medium lacking Tet) or virtual absence of HBV replication (in medium containing Tet). Non-transduced HBV 2.2.15 cells were included as a control in experiments where relevant.
# On day 7, total DNA was purified from supernatant using a commercially available kit (DNeasy Blood & Tissue kit, Qiagen). The HBV DNA was amplified in a real-time PCR assay using the AB 7900HT sequence detection system (Applied Biosystems) or the LightCycler 480 (Roche) as described by Stuyver et al. (2002). All samples were tested in duplicate. The concentration of compound that inhibited HBV DNA replication by 50% (EC50) or 90% (EC90) was determined by linear regression. HBV log viral reduction was also determined.
# After transduction with Cas9/sgRNA expressing lentiviral constructs and selection, we observed that extracellular levels of HBV DNA were suppressed by ˜98%, ˜80%, and ˜90%, respectively, by the RT, surface Ag, and core specific Cas9/sgRNA combinations (Table 1).
# [1] = tested on: HPV-18 E6 or E7 gene target; assay: FLuc indicator assay in 293T cells, Spy Cas9 sgRNAs expressed from U6 or tRNA promoters; conditions: Spy Cas9, 72 h, promoter driving the sgRNA varied
# Text: (§1) Human tRNA sequences were obtained from the Genomic tRNA database and the MHV tRNA-7 sequence was obtained from Bogerd et al. 2010. (Mol. Cell 37, p135-142, 2010). To generate a tRNA-sgRNA expression construct, overlapping oligonucleotides were assembled to create a tRNA fused to an sgRNA scaffold and a pol III termination signal. Between the tRNA and the sgRNA scaffold, two BsmBI or BbsI sites were incorporated to allow for the insertion of variable targeting sequences. tRNA-sgRNA cassettes were then cloned into Cas9 expression vectors pCMVSau (discussed more fully below), pCMVNme, or pX330 (Addgene, plasmid #42230) expressing S. aureus, N. meningitidis, or S. pyogenes Cas9, respectively. In the case of pX330 the U6 promoter was exchanged for the tRNA-sgRNA cassette.
# (§2) Reporter assays with 293T cells were performed by using the calcium phosphate transfection method. Briefly, 293T cells were plated at ˜1.25×10^5 cells per well in 12-well plates and transfected with a 4:1 ratio of the RGN expression plasmid to the FLuc-based indicator plasmid as well as 10 ng of a RLuc plasmid. Transfected 293T cells were then harvested 72 hours post transfection in Passive Lysis Buffer (Promega) and assayed for both FLuc and RLuc activity (Promega Dual-Luciferase Reporter Assay System) with RLuc serving as an internal control and normalization factor.
# Initially we generated predicted fusion transcripts consisting of a human glutamine tRNA (SEQ ID NO: 41), a human histidine tRNA (SEQ ID NO: 44) or an MHV68 tRNA (M1-7; SEQ ID NO: 50)) linked to Spy Cas9 sgRNAs specific for a target DNA sequence derived either from the human papillomavirus serotype 18 (HPV-18) E6 or E7 gene (SEQ ID NO: 8 and 10, respectively), as described above. Indicator plasmids consisting of these viral target sequences linked to the FLuc gene, constructed as described above, were then co-transfected into 293T cells along with a plasmid encoding Spy Cas9, plasmids encoding each of the tRNA promoters, or the U6 promoter, linked to the same sgRNA and finally a RLuc-based internal control plasmid. Cells were harvested at 72 h post-transfection and FLuc and RLuc levels determined.
# HSV-1 ICP0 gene = assay: FLuc indicator assay in 293T cells, Sau Cas9 sgRNA expressed from various tRNAs; conditions: Sau Cas9, identical HSV-1 ICP0 sgRNA (SEQ ID NO: 16), tRNA promoter varied
# Text: as §1, §2
# As such Sau encodes a promising Cas9 gene for potential use in AAV vectors. To analyze whether we could also produce active Sau sgRNAs using tRNA promoters, we expressed the identical Sau sgRNA, specific for a target within the HSV-1 ICP0 gene (SEQ ID NO: 16), using a wide range of human tRNAs. […] The reason for the lower efficiency of processing seen with all of these tRNA:sgRNA fusions is currently unclear, but could relate to the single invariant sgRNA sequence used in this experiment.
# [2] = HBV2.2.15 cells expressing Cas9 and HBV RT sgRNA, read-out: Percent inhibition of HBV DNA release into the supernatant medium, HBV RT sgRNA
# [3] = HBV2.2.15 cells expressing Cas9 and HBV core sgRNA, read-out: Percent inhibition of HBV DNA release into the supernatant medium, HBV core sgRNA
# [4] = HBV2.2.15 cells expressing Cas9 and HBV surface sgRNA, read-out: Percent inhibition of HBV DNA release into the supernatant medium, HBV surface sgRNA
# [5] = HBV2.2.15 cells expressing Cas9 and N.S. sgRNA, triplicate, read-out: Percent inhibition of HBV DNA release into the supernatant medium, N.S. sgRNA
molecule,measurement,setting,value
"Nc1ccn([C@@H]2CS[C@H](CO)O2)c(=O)n1 [3TC, lamivudine]",inhibition at 1 µM,HBV; [2],99.1 ± 0.03%
same,inhibition at 1 µM,HBV; [3],97.1 ± 0.5%
same,inhibition at 1 µM,HBV; [4],96.3 ± 0.1%
same,inhibition at 1 µM,HBV; [5],61.4 ± 6.2%
"C=C1[C@H](CO)[C@@H](O)C[C@@H]1n1cnc2c(=O)[nH]c(N)nc21 [ETV, entecavir]",inhibition at 1 µM,HBV; [2],98.5 ± 1%
same,inhibition at 1 µM,HBV; [3],97.9 ± 0.6%
same,inhibition at 1 µM,HBV; [4],97.6 ± 1.1%
same,inhibition at 1 µM,HBV; [5],78.3 ± 7.9%
"COC(=O)C1=C(CN2CCOCC2)NC(c2ccccn2)=NC1c1ccc(F)cc1Cl (stereo not shown) [HAP12, heteroaryldihydropyrimidine]","Percent inhibition of HBV DNA release into the supernatant medium, HBV RT sgRNA",HBV; HBV2.2.15 cells expressing Cas9 and HBV RT sgRNA,97.5 ± 0.7%
same,"Percent inhibition of HBV DNA release into the supernatant medium, HBV core sgRNA",HBV; HBV2.2.15 cells expressing Cas9 and HBV core sgRNA,97.6 ± 0.1%
same,"Percent inhibition of HBV DNA release into the supernatant medium, HBV surface sgRNA",HBV; HBV2.2.15 cells expressing Cas9 and HBV surface sgRNA,98.0 ± 0.3%
same,"Percent inhibition of HBV DNA release into the supernatant medium, N.S. sgRNA","HBV; HBV2.2.15 cells expressing Cas9 and N.S. sgRNA, triplicate",77.5 ± 5.2%
"CC(C)OC(=O)OCOP(=O)(CO[C@H](C)Cn1cnc2c(N)ncnc21)OCOC(=O)OC(C)C [TDF, tenofovir disoproxil fumarate]",inhibition at 1 µM,HBV; [2],98.9 ± 0.2%
same,inhibition at 1 µM,HBV; [3],97 ± 0.3%
same,inhibition at 1 µM,HBV; [4],95.9 ± 0.7%
same,inhibition at 1 µM,HBV; [5],68.1 ± 1.5%
"tRNAGLN: human glutamine tRNA promoter (SEQ ID NO: 41) fused to sgRNA (nucleic acid, expressed or natural sequence) DNA: GGTTCCATGGTGTAATGGTTAGCACTCTGGACTCTGAATCCAGCGATCCGAGTTCAAATCTCGGTGGAACCT",knockdown of E6- and E7-based FLuc indicator constructs,[1],effective and comparable knockdown
same,knockdown of FLuc indicator,HSV-1 ICP0 gene,strong knockdown
"tRNAGLN2: human tRNA promoter, SEQ ID NO: 45, fused to sgRNA (nucleic acid, expressed or natural sequence) DNA: GGTTCCATGGTGTAATGGTTAGCACTCTGGACTCTGAATCCAGCGATCCGAGTTCAAATCTCGGTGGAACCT",knockdown of FLuc indicator,HSV-1 ICP0 gene,strong knockdown
"tRNAMHV-7: MHV68 tRNA promoter (SEQ ID NO: 50) fused to sgRNA (nucleic acid, expressed or natural sequence) DNA: GCCAGGGTAGCTCAATTGGTAGAGCATCAGGCTAGTATCCTGTCGGTTCCGGTTCAAGTCCGGGCCCTGGTT",knockdown of E6- and E7-based FLuc indicator constructs,[1],effective and comparable knockdown
"tRNACYS: human tRNA promoter, SEQ ID NO: 48, fused to sgRNA (nucleic acid, expressed or natural sequence) DNA: GGGGGTATAGCTCAGGGGTAGAGCATTTGACTGCAGATCAAGAGGTCCCCAGTTCAAATCTGGGTGCCCCCT",knockdown of FLuc indicator,HSV-1 ICP0 gene,readily detectable knockdown
"tRNATYR: human tRNA promoter, SEQ ID NO: 49, fused to sgRNA (nucleic acid, expressed or natural sequence) DNA: GTCAGTGTTGCACAACGGTTAAGTGAAGAGGCTGTAAACCCAGACTGGATGGGTTCAATTCCCATCTCTGCCG",knockdown of FLuc indicator,HSV-1 ICP0 gene,little or no detectable knockdown
"U6 promoter: U6 pol III promoter, ~254 bp, SEQ ID NO: 51, driving sgRNA transcription (nucleic acid, Synthetic U6 Promoter) DNA: TCTAGAGAGGGCCTATTTCCCATGATTCCTTCATATTTGCATATACGATACAAGGCTGTTAGAGAGATAATTGGAATTAATTTGACTGTAAACACAAAGATATTAGTACAAAATACGTGACGTAGAAAGTAATAATTTCTTGGGTAGTTTGCAGTTTTAAAATTATGTTTTAAAATGGACTATCATATGCTTACCGTAACTTGAAAGTATTTCGATTTCTTGGCTTTATATATCTTGTGGAAAGGACGAAACACC",knockdown of E6- and E7-based FLuc indicator constructs,[1],effective and comparable knockdown
"tRNAGLU: human tRNA promoter, SEQ ID NO: 46, fused to sgRNA (nucleic acid, expressed or natural sequence) DNA: TCCCTGGTGGTCTAGTGGTTAGGATTCGGCGCTCTCACCGCCGCGGCCCGGGTTCGATTCCCGGTCAGGGAA",knockdown of FLuc indicator,HSV-1 ICP0 gene,strong knockdown
"tRNAHIS: human histidine tRNA promoter (SEQ ID NO: 44) fused to sgRNA (nucleic acid, expressed or natural sequence) DNA: GCCGTGATCGTATAGTGGTTAGTACTCTGCGTTGTGGCCGCAGCAACCTCGGTTCGAATCCGAGTCACGGCA",knockdown of E6- and E7-based FLuc indicator constructs,[1],slightly less effective
